Values of other authors, collected in US20150164065A1, “ORGAN ARREST, PROTECTION, PRESERVATION AND RECOVERY” (priority 2002, published 2015).

What was measured:
human NK(1) receptor = human NK(1) receptor (Homo sapiens, UniProt P25103)
NK(2) receptor = molecular target: T1, NK(2) receptor (Homo sapiens, UniProt P21452); details: relative to NK(1) receptor
T1 sequence (P21452 1-398): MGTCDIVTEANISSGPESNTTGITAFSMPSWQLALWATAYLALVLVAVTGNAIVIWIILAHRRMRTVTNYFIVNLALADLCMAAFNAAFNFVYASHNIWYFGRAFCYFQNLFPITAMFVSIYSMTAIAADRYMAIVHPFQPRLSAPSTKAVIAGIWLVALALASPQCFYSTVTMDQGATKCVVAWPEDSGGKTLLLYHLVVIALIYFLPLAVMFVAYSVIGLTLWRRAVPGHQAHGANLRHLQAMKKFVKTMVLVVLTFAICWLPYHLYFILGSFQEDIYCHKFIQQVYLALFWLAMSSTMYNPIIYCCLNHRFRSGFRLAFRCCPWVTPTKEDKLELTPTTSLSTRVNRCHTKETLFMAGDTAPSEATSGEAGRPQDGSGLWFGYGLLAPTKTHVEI

NK(3) receptor = molecular target: T2, NK(3) receptor (Homo sapiens, UniProt P29371); details: relative to NK(1) receptor
T2 sequence (P29371 1-465): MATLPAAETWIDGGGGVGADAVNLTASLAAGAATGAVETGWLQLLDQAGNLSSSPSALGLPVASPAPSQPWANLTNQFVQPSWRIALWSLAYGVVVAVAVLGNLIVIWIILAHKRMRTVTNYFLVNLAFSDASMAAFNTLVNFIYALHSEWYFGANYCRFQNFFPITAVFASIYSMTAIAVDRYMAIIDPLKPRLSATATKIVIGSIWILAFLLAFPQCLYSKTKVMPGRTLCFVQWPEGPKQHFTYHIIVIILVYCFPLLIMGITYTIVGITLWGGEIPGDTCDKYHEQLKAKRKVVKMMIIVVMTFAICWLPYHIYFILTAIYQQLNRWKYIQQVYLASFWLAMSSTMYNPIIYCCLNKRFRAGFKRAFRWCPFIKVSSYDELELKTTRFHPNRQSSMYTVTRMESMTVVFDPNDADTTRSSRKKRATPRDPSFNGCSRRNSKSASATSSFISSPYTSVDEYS

human NK(1) receptor, sequence (P25103 whole entry): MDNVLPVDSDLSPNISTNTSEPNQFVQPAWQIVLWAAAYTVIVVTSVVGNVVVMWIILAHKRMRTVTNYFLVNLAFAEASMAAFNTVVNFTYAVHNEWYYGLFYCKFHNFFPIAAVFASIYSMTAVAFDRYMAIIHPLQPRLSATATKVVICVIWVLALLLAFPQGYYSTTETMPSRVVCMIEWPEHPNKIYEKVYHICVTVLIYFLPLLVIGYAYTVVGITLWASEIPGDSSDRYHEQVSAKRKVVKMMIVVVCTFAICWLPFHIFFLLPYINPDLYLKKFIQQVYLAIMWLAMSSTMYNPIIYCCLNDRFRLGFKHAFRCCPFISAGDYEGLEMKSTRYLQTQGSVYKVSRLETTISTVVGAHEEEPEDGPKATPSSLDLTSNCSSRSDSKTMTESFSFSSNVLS

## CC1(C)CC(O)CC(C)(C)N1[O] [tempol(R)]
Isolated brain slices
  ischemia-induced cell swelling: reduction of cell swelling

## Cc1cccc(C)c1NC(=O)C[C@H]1CCN(C(=O)c2cc(C(F)(F)F)cc(C(F)(F)F)c2)[C@@H](Cc2ccccc2)C1.O=C(O)C[C@H](O)C(=O)O (relative stereo) [Example R116301, (2R-trans)-4-[1-[3,5-bis(trifluoromethyl)benzoyl]-2-(phenylmethyl)-4-piperidinyl]-N-(2,6-dimethylphenyl)-1-acetamide (S)-Hydroxybutanedioate]
Human NK(1) receptor
  Ki: 0.45 nM
NK(2) receptor
  selectivity toward NK(2) receptor: over 200 fold
NK(3) receptor
  selectivity toward NK(3) receptor: over 200 fold

## CNC(=S)NC [dimethylthiourea]
Isolated brain slices
  ischemia-induced cell swelling: reduction of cell swelling

## Cc1c(C)c2c(c(C)c1O)CC[C@](C)(C(=O)O)O2 [Trolox(R)]
Isolated brain slices
  ischemia-induced cell swelling: reduction of cell swelling
